Source: patent publication US12202805B2, “Process for preparing (5S)-{[2-(4-carboxyphenyl)ethyl] |2-(2-{|3-chloro-4'-(trifluoromethyl)biphenyl-4-yl]methoxy}phenyl)ethyl]aminol-5,6,7,8-tetrahydroquinoline-2-carboxylic acid and its crystalline forms for use as pharmaceutically active compound” (Bayer Aktiengesellschaft, priority 2021, dated 2025)
Where two headings read alike, the source gives them in different places.

Assay: E-2.3 inhalative, oral and intravenous single doses in healthy male subjects: plasma concentrations and lung deposition
Type: in vivo, human
Settings: for concentration at 0 h: 0 h after dose, heading: Geometric mean of plasma concentrations; for concentration at 0.25 h: 0.25 h after dose; for concentration at 0.5 h: 0.5 h after dose; for concentration at 0.75 h: 0.75 h after dose; for concentration at 1 h: 1 h after dose; for concentration at 1.5 h: 1.5 h after dose; for concentration at 2 h: 2 h after dose; for concentration at 2.5 h: 2.5 h after dose; for concentration at 3 h: 3 h after dose; for concentration at 4 h: 4 h after dose; for concentration at 6 h: 6 h after dose; for concentration at 8 h: 8 h after dose; for concentration at 12 h: 12 h after dose; for concentration at 15 h: 15 h after dose; for concentration at 24 h: 24 h after dose; for concentration at 28 h: 28 h after dose; for concentration at 32 h: 32 h after dose; for concentration at 36 h: 36 h after dose
Method: E-2.3 Inhalative, Oral and Intravenous Administration of Single Doses of sGC an Activator in Healthy Male Subjects—Lung Deposition
Healthy white male subjects, aged 18 to 45 years with a body mass index (BMI) above/equal 18.5 and below/equal 29.9 kg/m^2 were treated in a clinical phase I study with a single inhaled dose of 1000 μg (nominal dose), a single inhaled dose of 1000 μg (nominal dose)+charcoal block, a single oral dose of 1000 μg and a single infusion over 2 h of 100 μg of example 4. As the bioavailability of an intravenous application is generally 100% per definition and therefore higher than in case of an oral or […], the intravenous dose was carefully selected to be lower than the oral and inhaled dose to avoid higher plasma concentration resulting from a high IV dose and potential side effect, e.g. reduction in blood pressure or syncope. Therefore, 100 μg was selected for the IV dose in this investigation. Seven days washout period between treatments was applied. The subjects swallowed a solution for oral administration (20 ml comprising 1000 μg, see under C-2, table 26). The subjects received a solution as a single infusion over 2 hours (2 ml comprising 100 μg, see under C-2 table 26). The subjects inhaled the drug powder from capsules (see under C-1, tables 17 and 20) inserted into a handheld inhalation device by one deep inhalative breath. After inhalation of the dry powder formulation of this drug, some parts of the nominal dose remain in the capsule and the device, the dose which reaches the body at the mouthpiece is called the emitted dose. The emitted dose can be calculated/determined as followed: nominal dose−(remains in the capsule+remains in the device). After inhalation of the dry powder, one part of the emitted dose enters the gastrointestinal tract (GIT) and is called the oral part of the emitted dose, the other part of the emitted dose which reaches the lung through the respiratory airways is called the lung dose and represents the lung deposited dose. As the lung is the target organ of the effect, the lung deposited dose must be quantified. Lung deposition can be indirectly estimated, by determining the part of the nominal dose which reaches the GIT and the remains in the capsule and the device. To investigate and determine lung deposition, the following investigations were done (see also FIG. 59): • 1—Inhaled application of a single dose of 1000 μg of the dry powder. • 2—Inhaled application of a single dose of 1000 μg of the dry powder in combination with oral administration of charcoal block. The charcoal block capped the oral absorption of GIT part of the dose, as example 4 completely adsorbed to charcoal block. This implies that the concentrations of example 4 measured reach the systemic circulation via the lung. • 3—Administration of a single oral dose of […] example 4 to determine the oral absorption. • 4—Administration of a 2 h infusion of example 4 to investigate the elimination.

[1] = male, human, plasma, inhaled, 1000 μg, healthy male subjects, single 1000 μg inhale + Charcoal Block, N = 16, read-out: Geometric mean of plasma concentrations
[2] = male, human, plasma, inhaled, 1000 μg, healthy male subjects, single 1000 μg inhale, N = 16, read-out: Geometric mean of plasma concentrations
[3] = male, human, plasma, iv, 100 μg, healthy male subjects, 100 μg IV infusion over 2 h, N = 15, read-out: Geometric mean of plasma concentrations
[4] = male, human, plasma, po, 1000 μg, healthy male subjects, single 1000 μg oral, N = 16, read-out: Geometric mean of plasma concentrations

With `O=C(O)c1ccc(CCN(CCc2ccccc2OCc2ccc(-c3ccc(C(F)(F)F)cc3)cc2Cl)[C@H]2CCCc3nc(C(=O)O)ccc32)cc1` [example 4, (5S)—{[2-(4-Carboxyphenyl)ethyl][2-(2-{[3-chloro-4′-(trifluoromethyl)biphenyl-4-yl]methoxy}phenyl)-ethyl]amino}-5,6,7,8-tetrahydroquinoline-2-carboxylic acid as Monohydrate I] the emitted dose (after inhalation of 1000 μg in humans) was 720 µg, the “oral part of the dose” value (inhaled 1000 μg) was “approximately 13 % of the nominal dose” and the “lung dose (part of nominal dose that reached the lung)” value (inhaled dry powder) was 16.3 % of the nominal dose. The “total part of the dry powder reaching the body” value (inhaled dry powder) was 18.8 % of the nominal dose, the concentration at 0 h (male, human, plasma, inhaled, 1000 μg, healthy male subjects, single 1000 μg inhale + Charcoal Block, N = 16) was < 0.05 ng/mL and the concentration at 0.25 h [1] was 0.0583 ng/mL. It also gave a concentration at 0.5 h [1] of 0.261 ng/mL, a concentration at 0.75 h [1] of 0.491 ng/mL and a concentration at 1 h [1] of 0.662 ng/mL. For the same compound, the concentration at 1.5 h [1] was 0.9 ng/mL, the concentration at 2 h [1] was 0.969 ng/mL and the concentration at 2.5 h [1] was 1.02 ng/mL. For the same compound, the concentration at 3 h [1] was 0.933 ng/mL, the concentration at 4 h [1] was 0.812 ng/mL and the concentration at 6 h [1] was 0.508 ng/mL. The concentration at 8 h [1] was 0.373 ng/mL, the concentration at 12 h [1] was 0.22 ng/mL and the concentration at 15 h [1] was 0.157 ng/mL. It also gave a concentration at 24 h [1] of 0.0931 ng/mL, a concentration at 28 h [1] of 0.0761 ng/mL and a concentration at 32 h [1] of 0.0696 ng/mL. For the same compound, the concentration at 36 h [1] was 0.054 ng/mL, the concentration at 0 h (male, human, plasma, inhaled, 1000 μg, healthy male subjects, single 1000 μg inhale, N = 16) was < 0.05 ng/mL and the concentration at 0.25 h [2] was 0.0628 ng/mL. For the same compound, the concentration at 0.5 h [2] was 0.316 ng/mL, the concentration at 0.75 h [2] was 0.622 ng/mL and the concentration at 1 h [2] was 0.869 ng/mL. For the same compound, the concentration at 1.5 h [2] was 1.16 ng/mL, the concentration at 2 h [2] was 1.2 ng/mL and the concentration at 2.5 h [2] was 1.18 ng/mL. It also gave a concentration at 3 h [2] of 1.07 ng/mL, a concentration at 4 h [2] of 0.927 ng/mL and a concentration at 6 h [2] of 0.583 ng/mL. For the same compound, the concentration at 8 h [2] was 0.415 ng/mL, the concentration at 12 h [2] was 0.25 ng/mL and the concentration at 15 h [2] was 0.181 ng/mL. The concentration at 24 h [2] was 0.106 ng/mL, the concentration at 28 h [2] was 0.0793 ng/mL and the concentration at 32 h [2] was 0.0698 ng/mL. The concentration at 36 h [2] was 0.058 ng/mL, the concentration at 0 h (male, human, plasma, iv, 100 μg, healthy male subjects, 100 μg IV infusion over 2 h, N = 15) was < 0.05 ng/mL and the concentration at 0.25 h [3] was 1.76 ng/mL. It also gave a concentration at 0.5 h [3] of 2.52 ng/mL, a concentration at 0.75 h [3] of 2.68 ng/mL and a concentration at 1 h [3] of 2.99 ng/mL. For the same compound, the concentration at 1.5 h [3] was 3.15 ng/mL, the concentration at 2 h [3] was 3.07 ng/mL and the concentration at 2.083 h (male, human, plasma, iv, 100 μg, healthy male subjects, 100 μg IV infusion over 2 h, N = 15, 2.083 h after dose, read-out: Geometric mean of plasma concentrations) was 2.57 ng/mL. It also gave a concentration at 2.25 h (male, human, plasma, iv, 100 μg, healthy male subjects, 100 μg IV infusion over 2 h, N = 15, 2.25 h after dose, read-out: Geometric mean of plasma concentrations) of 1.42 ng/mL, a concentration at 2.5 h [3] of 0.559 ng/mL and a concentration at 2.75 h (male, human, plasma, iv, 100 μg, healthy male subjects, 100 μg IV infusion over 2 h, N = 15, 2.75 h after dose, read-out: Geometric mean of plasma concentrations) of 0.264 ng/mL. For the same compound, the concentration at 3 h [3] was 0.132 ng/mL, the concentration at 0 h (male, human, plasma, po, 1000 μg, healthy male subjects, single 1000 μg oral, N = 16) was < 0.05 ng/mL and the concentration at 0.25 h [4] was 0.777 ng/mL. It also gave a concentration at 0.5 h [4] of 3.64 ng/mL, a concentration at 0.75 h [4] of 5.28 ng/mL and a concentration at 1 h [4] of 5.68 ng/mL. The concentration at 1.5 h [4] was 4.69 ng/mL, the concentration at 2 h [4] was 3.32 ng/mL and the concentration at 2.5 h [4] was 2.26 ng/mL. The concentration at 3 h [4] was 1.6 ng/mL, the concentration at 4 h [4] was 1.01 ng/mL and the concentration at 6 h [4] was 0.424 ng/mL. It also gave a concentration at 8 h [4] of 0.233 ng/mL, a concentration at 12 h [4] of 0.126 ng/mL and a concentration at 15 h [4] of 0.0714 ng/mL.
